Measurements published in US8906685B2, “Hanging drop devices, systems and/or methods” (The Regents of The University of Michigan, priority 2010, dated 2014).
pIC50: −log10 of the molar value.

Assays:
A431.H9 spheroids [1] = test: time-lapse images of drug-treated spheroids in 384 hanging drop array plate; format: cell-based, human; details: all 3 spheroid sizes, 96 hours; for spheroid size over the drug treatment period: 10 μM drug; for spheroid viability / integrity over the drug treatment period: 5000 μM drug
Protocol: (§1) According to the procedure mentioned above, A431.H9 spheroids at the specified cell numbers were formed, and their growth media were exchanged every other day. TPZ and 5-FU stock solutions of four times the final testing concentrations (0, 0.1, 1, 10, 100, 1000, 5000 μM) were initially prepared in Dulbecco's phosphate buffered saline (D-PBS) (Gibco 14190, Invitrogen). On day 2 of A431.H9 spheroid culture, 5 μl of the appropriate concentration of TPZ (or 5-FU) stock solutions was subsequently added to each of the 15 μl A431.H9 cell hanging drop droplets. Cellular viability was monitored at 24, 48, 72, and 96 hours of drug incubation using alamarBlue (Invitrogen). Following manufacturer's protocol, 2 μl (one-tenth of each hanging drop sample volume) of alamarBlue was added to each A431.H9 hanging drop spheroid sample and incubated for 2 hours. Following incubation, each A431.H9 hanging drop spheroid sample plate was read using a plate reader (FLx800 Fluorescence Microplate Reader, Biotek) at 525 nm excitation and 590 nm emission to obtain fluorescence intensity readout. As the fluorescence intensity of alamarBlue is directly proportional to cell number, the average percent cell viability for each drug concentration can be calculated easily by normalizing to the 0 μM untreated spheroid control. Anti-cancer drug sensitivity experiments under 2D control conditions were performed in standard tissue culture treated 96-well plates (Corning Costar 3596), with everything else being the same as the 3D spheroid experiments. 50% of culture media was replaced by fresh media every other day.
FIGS. 3a-c show the time-lapse images of A431.H9 spheroids treated with TPZ at 0, 10, and 5000 μM for 3 different spheroid sizes (300, 1500, and 7500-cell spheroids). The control untreated A431.H9 spheroids at all 3 sizes still grow and proliferate properly over the duration of drug treatment. […] The IC50 of A431.H9 cells cultured in conventional 2D condition is about 50 μM, while the IC50 of the A431.H9 3D spheroids for all 3 sizes is about 8 μM. Contrary to most anti-cancer drugs, A431.H9 cells treated with TPZ are more resistant when cultured under 2D conditions rather than 3D conditions.
Similarly, FIGS. 4a-c show the time-lapse images of A431.H9 spheroids treated with 5-FU at 0, 10, and 5000 μM for 3 different spheroid sizes (300, 1500, and 7500-cell spheroids). Again, the control untreated A431.H9 spheroids at all 3 sizes all look healthy and still proliferate properly over the duration of drug treatment. […] By 96 hours after drug treatment, significant portions of cells had already dissociated from the A431.H9 spheroids, indicating drug cytotoxicity. […]

A431.H9 cells = test: anti-cancer drug sensitivity testing, conventional 2D culture in 96-well plates, alamarBlue cell viability; format: cell-based; details: Homo sapiens, % cell viability 96 hours after drug treatment, read-out: IC50 of A431.H9 cells cultured in conventional 2D condition
Protocol: To investigate the stability of long-term hanging drop spheroid culture using the designed array plate, osmolality measurements were performed while culturing three types of cells: kidney fibroblast cell (COS7), murine embryonic stem (mES) cell (ES-D3), and a human carcinoma cell that stably express mesothelin (A431.H9). […]
According to the procedure mentioned above, A431.H9 spheroids at the specified cell numbers were formed, and their growth media were exchanged every other day. […] Cellular viability was monitored at 24, 48, 72, and 96 hours of drug incubation using alamarBlue (Invitrogen). […] Following incubation, each A431.H9 hanging drop spheroid sample plate was read using a plate reader (FLx800 Fluorescence Microplate Reader, Biotek) at 525 nm excitation and 590 nm emission to obtain fluorescence intensity readout. As the fluorescence intensity of alamarBlue is directly proportional to cell number, the average percent cell viability for each drug concentration can be calculated easily by normalizing to the 0 μM untreated spheroid control. […]

A431.H9 spheroids [2] = test: anti-cancer drug sensitivity testing, 3D spheroids in 384 hanging drop array plate, alamarBlue cell viability; format: cell-based; details: Homo sapiens
Protocol: To investigate the stability of long-term hanging drop spheroid culture using the designed array plate, osmolality measurements were performed while culturing three types of cells: kidney fibroblast cell (COS7), murine embryonic stem (mES) cell (ES-D3), and a human carcinoma cell that stably express mesothelin (A431.H9). Prior to performing hanging drop culture using the plate, ES-D3 cells were cultured in dishes coated with 0.1% w/v porcine gel (Sigma-Aldrich) and maintained in medium consisting of Dulbecco's Modified Eagle's Medium (DMEM) (Gibco 11960, Invitrogen) with 15% v/v fetal bovine serum (FBS) (Gibco 10082, Invitrogen), 4 mM L-glutamin (Invitrogen), 0.1 mM 2-mercapto-ethanol (Sigma-Aldrich), 0.02% v/v sodium pyruvate (Sigma-Aldrich), 100 U ml^−1 penicillin (Invitrogen), 100 U ml^−1 streptomycin (Invitrogen), and 1000 U ml^−1 ESGRO (Invitrogen) which contains leukemia inhibitory factor (LIF). COS7 and A431.H9 cells were cultured in DMEM (Gibco 11965, Invitrogen) with 10% v/v FBS (Gibco 10082, Invitrogen), and 1% v/v antibiotic-antimicotic (Gibco 15240, Invitrogen). All the cells were cultured in a humidified incubator (37° C. in an atmosphere of 5% CO^2). Cell suspensions for the hanging drop experiments were made by dissociating cells with 0.25% trypsin-EDTA (Gibco 25200, Invitrogen), centrifugation of dissociated cells at 1000 rpm for 1 min at room temperature, and re-suspended in growth media. Cell density was estimated using a hemocytometer.
On the spheroid culture plate, a 15 μl cell suspension was dispensed into the access hole at each cell culture site to form a hanging drop. In order to prevent evaporation, 4 ml of distilled water was added into the peripheral water reservoir. In addition, the plate was sandwiched by a well-plate lid and a 96-well plate filled with distilled water, and wrapped using a Parafilm. The growth media was exchanged every other day by taking 5 μl solution from a drop, and adding 7 μl fresh growth media into a drop. For the osmolality measurement, 10 μl sample solution was pipetted out from a drop and transferred to a vapor pressure osmometer (Vapro Model 5520, Wesco, Inc.) for analysis.
as §1, with “Anti-cancer drug sensitivity experiments under 2D control conditions were performed in standard tissue culture treated 96-well plates (Corning Costar 3596), with everything else being the same as the 3D spheroid experiments. 50% of culture media was replaced by fresh media every other day.” left out

[3] = ALL3, 96 h, 3D condition, all 3 spheroid sizes (300, 1500, 7500-cell), 96 hours after drug treatment

Compound	spheroid size over the drug treatment period (A431.H9 spheroids [1])	spheroid viability / integrity over the drug treatment period (A431.H9 spheroids [1])	pIC50 (A431.H9 cells)	pIC50 (A431.H9 spheroids [2]; 96 h, 300-cell spheroids, 96 hours after treatment)	pIC50 (A431.H9 spheroids [2]; 96 h, 1500-cell spheroids, 96 hours after treatment)	pIC50 (A431.H9 spheroids [2]; 96 h, 7500-cell spheroids, 96 hours after treatment)	pIC50 (A431.H9 spheroids [2]; [3])
O=c1[nH]cc(F)c(=O)[nH]1 [5-FU, 5-fluorouracil]	slowly become smaller	spheroid integrity was greatly compromised	~7.00	~5.52	~6.00	~4.05	4.00 to 6.00
Nc1n[n+]([O-])c2ccccc2[n+]1[O-] [TPZ, tirapazamine]	stayed relatively constant	poor viability	~4.30				~5.10
